Like-named read-outs stand apart in the source and are kept apart here.
Tests used:
TCC88 = details: for Proliferation (SI), peptide dose titration: sheet f
[1] = system: isolated TIL-derived CD4+ TCCs; experiment: All isolated TCCs tested against SIN3A* peptide: proliferation (SI); format: cell-based, human; details: for SI: proliferation, sheet 2b
[2] = system: autologous glioblastoma cells; experiment: T cell cytotoxicity assay of TCC88 against the autologous tumour cell line; format: cell-based, human; details: TCC88 stimulated with 2 µM peptide for 72 h; E:T 1:1 and 5:1; 24 h; duplicates; Fig. 3f
Text: Fig. 3 Bacteria-derived and microbiota-derived peptides can stimulate TCC88 as well as the tumour antigen. a, Peptides with the highest predicted stimulatory scores were identified by searching various databases (see Methods). Numbers of unique 10-mer peptides within each database, synthesized peptides, TCC88 stimulatory peptides and the corresponding percentage of stimulatory peptides within each database are shown. […] Cytokine and chemokine secretion of TCC88 was examined and compared upon stimulation with these three different antigens. A specific amount of each cytokine and chemokine (pg ml^−1) was calculated by subtracting the cytokines in the negative control cultures (no peptide control). f, Cytotoxicity of TCC88 against the autologous tumour cell line after stimulation with 2 µM of SIN3A* and HGM3 (data represent the mean percentage of two replicate wells). E:T, effector to target. g, TCC88 was tested with HGM3 (10 µM) or SIN3A* (10 µM) peptides or both together (each 10 µM), and ^3H-thymidine incorporation was measured after 3 days (data represent the mean SI value of three replicate wells ± s.e.m.). Also see Extended Data Figs. 3 and 4. Source data […]

## Ac-QPVEFNHAIHYVN-NH2 [SIN3A*]
TCC88; 3 h
  SI: TCC88: 20.6
TCC88; peptide concentration 10-1 (unit not given), replicate 1
  Proliferation (SI), peptide dose titration: 42.2997
TCC88; peptide concentration 10-1 (unit not given), replicate 2
  Proliferation (SI), peptide dose titration: 45.1904
TCC88; peptide concentration 10-1 (unit not given), replicate 3
  Proliferation (SI), peptide dose titration: 49.4521
TCC88; peptide concentration 10-2 (unit not given), replicate 1
  Proliferation (SI), peptide dose titration: 1.135
TCC88; peptide concentration 10-2 (unit not given), replicate 2
  Proliferation (SI), peptide dose titration: 0.9523
TCC88; peptide concentration 10-2 (unit not given), replicate 3
  Proliferation (SI), peptide dose titration: 1.168
TCC88; peptide concentration 10-3 (unit not given), replicate 1
  Proliferation (SI), peptide dose titration: 0.8172
TCC88; peptide concentration 10-3 (unit not given), replicate 2
  Proliferation (SI), peptide dose titration: 0.7497
TCC88; peptide concentration 10-3 (unit not given), replicate 3
  Proliferation (SI), peptide dose titration: 0.8105
TCC88; peptide concentration printed 10, fifth line r7 (unit not printed), replicate 1
  Proliferation (SI), peptide dose titration: 28.2921
TCC88; peptide concentration printed 10, fifth line r7 (unit not printed), replicate 2
  Proliferation (SI), peptide dose titration: 32.0878
TCC88; peptide concentration printed 10, fifth line r7 (unit not printed), replicate 3
  Proliferation (SI), peptide dose titration: 32.0203
TCC88; peptide concentration printed 10, fourth line r6 (unit not printed), replicate 1
  Proliferation (SI), peptide dose titration: 44.2381
TCC88; peptide concentration printed 10, fourth line r6 (unit not printed), replicate 2
  Proliferation (SI), peptide dose titration: 56.0371
TCC88; peptide concentration printed 10, fourth line r6 (unit not printed), replicate 3
  Proliferation (SI), peptide dose titration: 57.6243
[1]; TCC4
  SI: 326.128
[1]; TCC11
  SI: 238.815
[1]; TCC12
  SI: 287.573
[1]; TCC13
  SI: 453.401
[1]; TCC15
  SI: 28.5845
[1]; TCC16
  SI: 23.5776
[1]; TCC20
  SI: 244.524
[1]; TCC29
  SI: 34.8583
[1]; TCC31
  SI: 128.595
[1]; TCC32
  SI: 5.805
[1]; TCC33
  SI: 313.375
[1]; TCC35
  SI: 7.243
[1]; TCC37
  SI: 2.779
[1]; TCC38
  SI: 611.635
[1]; TCC43
  SI: 28.9619
[1]; TCC47
  SI: 29.6013
[1]; TCC52
  SI: 25.0598
[1]; TCC56
  SI: 22.816
[1]; TCC57
  SI: 3.669
[1]; TCC60
  SI: 23.5877
[1]; TCC63
  SI: 17.3519
[1]; TCC67
  SI: 7.121
[1]; TCC68
  SI: 7.155
[1]; TCC72
  SI: 5.137
[1]; TCC75
  SI: 11.5536
[1]; TCC76
  SI: 2.574
[1]; TCC88
  SI: 34.5634
[1]; TCC89
  SI: 2.064
[1]; TCC90
  SI: 56.5299
[1]; TCC91
  SI: 28.9154
[1]; TCC92
  SI: 23.8373
[1]; TCC93
  SI: 31.4988
[1]; TCC94
  SI: 41.408
[1]; TCC96
  SI: 17.6927
[1]; TCC97
  SI: 56.4388
[1]; TCC98
  SI: 67.9438
[1]; TCC99
  SI: 7.081
[1]; TCC101
  SI: 5.504
[1]; TCC102
  SI: 3.298
[1]; TCC103
  SI: 23.6756
[1]; TCC104
  SI: 20.3791
[1]; TCC107
  SI: 14.7872
[1]; TCC109
  SI: 67.7177
[1]; TCC110
  SI: 38.4196
[1]; TCC111
  SI: 16.0477
[1]; TCC112
  SI: 3.861
[1]; TCC113
  SI: 9.948
[1]; TCC114
  SI: 19.6549
[1]; TCC115
  SI: 9.682
[1]; TCC116
  SI: 36.7042
[1]; TCC118
  SI: 2.382
[1]; TCC120
  SI: 8.436
[1]; TCC121
  SI: 46.4714
[1]; TCC124
  SI: 44.5013
[1]; TCC126
  SI: 30.498
[1]; TCC127
  SI: 40.4213
[1]; TCC128
  SI: 20.9837
[1]; TCC129
  SI: 2.6751
[1]; TCC130
  SI: 24.2362
[1]; TCC132
  SI: 2.2794
[1]; TCC133
  SI: 8.094
[1]; TCC134
  SI: 2.175
[1]; TCC135
  SI: 13.0838
[1]; TCC137
  SI: 37.685
[1]; TCC138
  SI: 0.96
[1]; TCCs isolated from SIN3A*-stimulated TILs, 3 days, Fig. 2b
  CD4+ TCCs that responded by proliferation or production of IFNγ: 70 out of 124
[2]
  cytotoxic activity against autologous glioblastoma cells (in words): comparable

Reference: paper PMC10208956, “Microbial peptides activate tumour-infiltrating lymphocytes in glioblastoma” (Nature, 2023)
